Where two headings read alike, the source gives them in different places.
Tests used:
[1] = test system: HIV-1/Ba-L; assay: antiviral test in monocyte-derived macrophages (MDM), RT activity; type: cell-based; settings: for anti-HIV activity, HIV-1/Ba-L replication: in words; for Percentage inhibition, Mean / ED70 / ED90 / EC50: MDMs, HIV-1/Ba-L; for EC50: Human immunodeficiency virus 1, BAL, Macrophage, read-out: ED50 (the source's name)
Method: (§1) These viruses were amplified in vitro with umbilical blood mononuclear cells (UBMC) activated with PHA-P. The cell-free supernatant was centrifuged at […] for 10 minutes to eliminate soluble factors, and the residue was re-suspended in cell culture medium. Virus stocks were titrated using PBMC cells activated with PHA-P and 50% tissue culture infectious doses (TCID50) were calculated using Kärber's formula.
The MDM cells were pre-treated for 30 minutes in 6 concentrations of different molecules and infected with 30000 TCID50 of the HIV-1/Ba-L strain. AZT (0.8, 4, 20, 100 and 500 nM) and indinavir (0.8, 4, 20, 100 and 500 nM) were used as the control. […] The molecules were maintained for 7 days post infection, and the cellular supernatant was harvested 7, 14 and 21 days post infection and stored at −20° C. to measure viral replication by reverse transcriptase activity (RT) assay.
(§2) HIV replication was analyzed by assaying the RT activity in the supernatants from cell cultures using the RetroSys RT kit (Innovagen). The experiments were carried out 3 times and the results are expressed as the mean of the RT activity±the standard deviation (SD).

[2] = test system: HIV-1-LA1; assay: antiviral test in PHA-P activated PBMC, RT activity; type: cell-based; settings: for anti-HIV activity, replication of HIV-1-LA1: PBMC activated by PHA-P, 7th day, in words; for Percentage inhibition, Mean: HIV-1 LA1, day 7; for reduction of HIV-1 replication: PBMC activated with PHA-P
Method: as §1
PBMC cells were pre-treated for 30 minutes by 5 concentrations of each molecule and infected with 75 TCID50 of the HIV-1-LA1 strain. AZT (1.6, 8, 40, 200 and 1000 nM) and indinavir (1.6, 8, 40, 200 and 1000 nM) were used as the control. […] The molecules were maintained throughout culture, and the cellular supernatant was harvested 7 days post infection and stored at −20° C. to measure viral replication by reverse transcriptase activity (RT) assay.
as §2
In a last step, it was examined whether SHPs were actually capable of inhibiting HIV-1 replication. This was carried out in PBMCs activated by PHA-P and in MDMs. […] The effects of different SHPs was thus tested at this time. AZT and indinavir were used as controls.

[3] = test system: Jurkat cells; assay: intracellular entry, immunofluorescence in Jurkat cells; type: cell-based; settings: 2 μM for one hour, analyzed 24 h later
Method: Light transmission and fluorescence images are shown for representative cells.
The immunofluorescence tests were carried out with a primary anti-FLAG antibody in a dilution of 1:500 incubated for 2 hours and a secondary antibody coupled to the Alexa Fluor 488 fluorophore (Molecular Probes) diluted 1:1000, incubated for one hour.
To confirm that SHPs do indeed enter the cell, immunofluorescence analyses were also carried out. Jurkat cells were incubated with 1 μM of SHP for 4 hours and after washing twice, the cells were cultured for 24 hours.

[4] = molecular target: Rev (Human immunodeficiency virus type 1 group M subtype B, UniProt P04618); settings: HeLa cells
Method: This type of indicative construct allowed an evaluation of the effect of Rev, which by causing transport towards the cytoplasm of the non spliced RNA, allowed expression of the CAT enzyme.
The CAT activity was measured using the CAT ELISA kit (Roche).
The SHPR activity was evaluated using the reporter construct pDM128 which included the coding sequence CAT and an RRE motif in an intron. Expression of Rev stimulated expression of CAT allowing an unspliced messenger to be exported to the cytoplasm.
These various mutants were tested using a transitory expression system consisting of transfecting HeLa cells of the reporter plasmid having the CAT sequence associated with the RRE in the intronic position with expression vectors for the Rev protein and the SHPR protein. […] The separation between the two values was less than 20%.
These vectors were transfected with the reporter plasmid pDM128 and the expression vector Rev as described in the above sections (and in Roisin et al, JBC (2004) 279: 9208). The quantity of CAT protein is expressed as a % of that corresponding to transfection of parental SHPR. A value of more than 100 thus indicates a negative effect on the inhibiting power of SHPR and a lower value indicates an increase in this inhibiting property.

[5] = molecular target: Rev/RRE association (Human immunodeficiency virus type 1 group M subtype B, UniProt P04618); settings: Rev produced in bacteria, RRE RNA probe
Method: To this end, gel retard experiments were carried out with a RNA molecule corresponding to the RRE element as the probe. The Rev protein produced in bacteria binds to this RNA and induces a non denaturing polyacrylamide gel migration retardation.

[6] = test system: PBMCs (resting and activated lymphocytes); assay: penetration into PBMCs and stability in medium, anti-FLAG immunoblot; type: cell-based, human
Method: Mononuclear cells were prepared from peripheral blood, either directly (A) or after activation with PHA (phytohemagglutinin) and IL-2 (interleukin 2) (B), then incubated with 2 μM of SHPR-190. At the times indicated after addition of the interacting peptide, an aliquot of supernatant was analyzed by immunoblot using antibodies against FLAG (A, lines 1 to 4; B, lines 1 to 3). The cells were collected and lysed in RIPA buffer. The extract obtained was analyzed by immunoblot as described for the supernatant (A, lines 5 and 6; B, line 4). In portion A, the exposure times were different between lines 5 and 6 (30 s) and lines 1 to 4 (5 s).
To evaluate the capacity of SHPs to penetrate into cells, PBMCs were cultivated in medium supplemented with 2 μM of SHPR-190. At different times, an aliquot of supernatant was removed and the cells were collected. After washing several times, the cells were lysed in RIPA buffer and the supernatant as well as that which was extracted was analyzed by immunoblot using an antibody directed against the FLAG eiptope, which is present at the N-terminal end of SHP produced in bacteria.

## Cc1cn([C@H]2C[C@H](N=[N+]=[N-])[C@@H](CO)O2)c(=O)[nH]c1=O [AZT, reference compound]
[1]; MDM
  anti-HIV activity, HIV-1/Ba-L replication: reduced in a dose-dependent manner
[1]; Day 7, dose 0.8 (nM)
  Percentage inhibition, Mean: 76%
[1]; Day 7, dose 4 (nM)
  Percentage inhibition, Mean: 72%
[1]; Day 7, dose 20 (nM)
  Percentage inhibition, Mean: 87%
[1]; Day 7, dose 100 (nM)
  Percentage inhibition, Mean: 88%
[1]; Day 7, dose 500 (nM)
  Percentage inhibition, Mean: 93%
[1]; Day 14
  ED70: 9 nM
  ED90: 64 nM
[1]; Day 14, dose 0.8 (nM)
  Percentage inhibition, Mean: 0%
[1]; Day 14, dose 4 (nM)
  Percentage inhibition, Mean: 55%
[1]; Day 14, dose 20 (nM)
  Percentage inhibition, Mean: 82%
[1]; Day 14, dose 100 (nM)
  Percentage inhibition, Mean: 92%
[1]; Day 14, dose 500 (nM)
  Percentage inhibition, Mean: 100%
[1]; Day 21, dose 0.8 (nM)
  Percentage inhibition, Mean: 0%
[1]; Day 21, dose 4 (nM)
  Percentage inhibition, Mean: 0%
[1]; Day 21, dose 20 (nM)
  Percentage inhibition, Mean: 68%
[1]; Day 21, dose 100 (nM)
  Percentage inhibition, Mean: 81%
[1]; Day 21, dose 500 (nM)
  Percentage inhibition, Mean: 100%
[2]
  anti-HIV activity, replication of HIV-1-LA1: effectively inhibited
[2]; PBMCs, HIV-1-LA1, 7th day
  ED70: 13.5 nM
  ED90: 19 nM
[2]; PBMCs, Dose 1.6 (nM)
  Percentage inhibition, Mean: 0%
[2]; PBMCs, Dose 8 (nM)
  Percentage inhibition, Mean: 81%
[2]; PBMCs, Dose 40 (nM)
  Percentage inhibition, Mean: 98%
[2]; PBMCs, Dose 200 (nM)
  Percentage inhibition, Mean: 98%
[2]; PBMCs, Dose 1000 (nM)
  Percentage inhibition, Mean: 100%

## CC(C)(C)NC(=O)[C@@H]1CN(Cc2cccnc2)CCN1C[C@@H](O)C[C@@H](Cc1ccccc1)C(=O)N[C@H]1c2ccccc2C[C@H]1O [IDV, indinavir, reference compound]
[1]; 336 h, Day 14
  EC50: 22 nM
[1]; 504 h, Day 21
  EC50: 22 nM
[1]; MDM
  anti-HIV activity, HIV-1/Ba-L replication: reduced in a dose-dependent manner
[1]; Day 7, dose 0.8 (nM)
  Percentage inhibition, Mean: 59%
[1]; Day 7, dose 4 (nM)
  Percentage inhibition, Mean: 69%
[1]; Day 7, dose 20 (nM)
  Percentage inhibition, Mean: 90%
[1]; Day 7, dose 100 (nM)
  Percentage inhibition, Mean: 93%
[1]; Day 7, dose 500 (nM)
  Percentage inhibition, Mean: 97%
[1]; Day 14
  ED70: 26.5 nM
  ED90: 34.5 nM
[1]; Day 14, dose 0.8 (nM)
  Percentage inhibition, Mean: 0%
[1]; Day 14, dose 4 (nM)
  Percentage inhibition, Mean: 0%
[1]; Day 14, dose 20 (nM)
  Percentage inhibition, Mean: 68%
[1]; Day 14, dose 100 (nM)
  Percentage inhibition, Mean: 100%
[1]; Day 14, dose 500 (nM)
  Percentage inhibition, Mean: 100%
[1]; Day 21
  ED70: 32 nM
  ED90: 62 nM
[1]; Day 21, dose 0.8 (nM)
  Percentage inhibition, Mean: 0%
[1]; Day 21, dose 4 (nM)
  Percentage inhibition, Mean: 0%
[1]; Day 21, dose 20 (nM)
  Percentage inhibition, Mean: 47%
[1]; Day 21, dose 100 (nM)
  Percentage inhibition, Mean: 96%
[1]; Day 21, dose 500 (nM)
  Percentage inhibition, Mean: 100%
[2]; Human immunodeficiency virus 1, PBMC, PBMCs, HIV-1-LA1, 7th day, read-out: ED50 (the source's name)
  EC50: 14 nM
[2]
  anti-HIV activity, replication of HIV-1-LA1: effectively inhibited
[2]; PBMCs, HIV-1-LA1, 7th day
  ED70: 18 nM
  ED90: 25.5 nM
[2]; PBMCs, Dose 1.6 (nM)
  Percentage inhibition, Mean: 0%
[2]; PBMCs, Dose 8 (nM)
  Percentage inhibition, Mean: 67%
[2]; PBMCs, Dose 40 (nM)
  Percentage inhibition, Mean: 92%
[2]; PBMCs, Dose 200 (nM)
  Percentage inhibition, Mean: 100%
[2]; PBMCs, Dose 1000 (nM)
  Percentage inhibition, Mean: 100%

B1: SHPR-190: SUMO-1-heptapeptide-Tat PTD protein against Rev; heptapeptide Asn Trp Leu Cys Cys Leu Asn (SEQ ID NO: 3) (protein)
chain: MSDQEAKPSTEDLGDKKEGEYIKLKVIGQDSSEIHFKVKMTTHLKKLKESYCQRQGVPMNSLRFLFEGQRIADNHTPKELGMEEEDVIEVYQEQTARPPNPKKEIELGGGGSNWLCCLNPGRKKRRQRRRG
[3]
  immunofluorescence with antibody against FLAG: diffuse fluorescence
[4]
  inhibition of the function of Rev (CAT from pDM128): effective inhibitors of the function of Rev
[1]; MDM, 2 μM on day 14
  inhibition of HIV replication: 92±2%
[1]; MDM
  anti-HIV activity, HIV-1/Ba-L replication: dose-dependent
[1]; Day 7, dose 62.5 (nM)
  Percentage inhibition, Mean: 0%
[1]; Day 7, dose 125 (nM)
  Percentage inhibition, Mean: 34%
[1]; Day 7, dose 250 (nM)
  Percentage inhibition, Mean: 50%
[1]; Day 7, dose 500 (nM)
  Percentage inhibition, Mean: 89%
[1]; Day 7, dose 1000 (nM)
  Percentage inhibition, Mean: 94%
[1]; Day 7, dose 2000 (nM)
  Percentage inhibition, Mean: 99%
[1]; Day 14
  ED70: 1040 nM
  ED90: 1450 nM
[1]; Day 14, dose 62.5 (nM)
  Percentage inhibition, Mean: 0%
[1]; Day 14, dose 125 (nM)
  Percentage inhibition, Mean: 0%
[1]; Day 14, dose 250 (nM)
  Percentage inhibition, Mean: 0%
[1]; Day 14, dose 500 (nM)
  Percentage inhibition, Mean: 66%
[1]; Day 14, dose 1000 (nM)
  Percentage inhibition, Mean: 70%
[1]; Day 14, dose 2000 (nM)
  Percentage inhibition, Mean: 92%
[1]; Day 21
  ED70: >2000 nM
  ED90: >2000 nM
[1]; Day 21, dose 62.5 (nM)
  Percentage inhibition, Mean: 0%
[1]; Day 21, dose 125 (nM)
  Percentage inhibition, Mean: 0%
[1]; Day 21, dose 250 (nM)
  Percentage inhibition, Mean: 0%
[1]; Day 21, dose 500 (nM)
  Percentage inhibition, Mean: 28%
[1]; Day 21, dose 1000 (nM)
  Percentage inhibition, Mean: 50%
[1]; Day 21, dose 2000 (nM)
  Percentage inhibition, Mean: 60%
[5]
  effect on Rev/RRE association (gel retardation): did not inhibit this association
[6]; 2 μM in PBMC culture supernatant
  stability in the culture medium: stable in the culture medium
[6]; 2 μM, resting and activated lymphocytes
  presence inside the cell: a fraction of the protein was present inside the cell
[6]; external concentration of 2 μM, lymphocyte assumed a sphere 12μ in diameter
  intracellular concentration: 15 µM
[2]
  anti-HIV activity, replication of HIV-1-LA1: reduced replication
[2]; 1 μM
  reduction of HIV-1 replication: 80±7%
[2]; 2 μM
  reduction of HIV-1 replication: 100%
[2]; PBMCs, HIV-1-LA1, 7th day
  ED70: 720 nM
  ED90: 927 nM
[2]; PBMCs, Dose 31 (nM)
  Percentage inhibition, Mean: 0%
[2]; PBMCs, Dose 62.5 (nM)
  Percentage inhibition, Mean: 0%
[2]; PBMCs, Dose 125 (nM)
  Percentage inhibition, Mean: 0%
[2]; PBMCs, Dose 250 (nM)
  Percentage inhibition, Mean: 0%
[2]; PBMCs, Dose 500 (nM)
  Percentage inhibition, Mean: 38%
[2]; PBMCs, Dose 1000 (nM)
  Percentage inhibition, Mean: 80%
[2]; PBMCs, Dose 2000 (nM)
  Percentage inhibition, Mean: 100%
